Columns and labels:
[1] = tested on: Echinochloa crus-galli; assay: Greenhouse post-emergence herbicidal activity on Echinochloa crus-galli; format: in vivo; conditions: 0.654 g ai/ha, scale 0-100, AMS + NIS added
Text: (§1) For the post-emergence treatment, the test plants were first grown to 3 to 4 inch (7.6 to 10.2 cm) tall, and only then treated. Here, the herbicidal compositions were suspended or emulsified in water as distribution medium and sprayed using finely distributing nozzles.
(§2) The herbicide compounds applied in the examples were used as commercially available formulations which have been diluted with deionized water to a suitable concentration.
(§3) Carfentrazone (commercial product name: Aim) was used as an emulsifiable concentrate having an active ingredient concentration of 240 g/l. Glufosinate (commercial product name: Liberty) was used as an aqueous soluble liquid of glufosinate ammonium having an active ingredient concentration of 280 g/l. Adjuvants of ammonium sulfate (AMS) and non-ionic surfactant (NIS) were added in all treatments. AMS and NIS were AMS Liquid and Induce at rates of 1680 g/ha and 0.25% (v/v), respectively.
(§4) The test period extended over 28 days after treatment (DAT). During this time, the plants were tended and their response to the individual treatments was evaluated.
(§5) The evaluation for the damage caused by the chemical compositions was carried out using a scale from 0 to 100%, compared to the untreated control plants. Here, 0 means no damage and 100 means complete destruction of the plants.
(§6) The plants used in the greenhouse experiments belonged to the following species:
(§7) 22 ff. E=X+Y−(X·Y/100) • where X=effect in percent using carfentrazone at an application rate a; • Y=effect in percent using glufosinate at application rate b; • E=expected effect (in %) of carfentrazone plus glufosinate at application rates a+b.
(§8) The value E corresponds to the effect (plant damage or injury) which is to be expected if the activity of the individual compounds is just additive. If the observed effect is higher than the value E calculated according to Colby, a synergistic effect is present.

[2] = tested on: Chenopodium album; assay: Greenhouse post-emergence herbicidal activity on Chenopodium album; format: in vivo; conditions: 0.654 g ai/ha
Text: as §1, §2, §3, §4, §5, §6, §7, §8

Structure (SMILES): CCOC(=O)C(Cl)Cc1cc(-n2nc(C)n(C(F)F)c2=O)c(F)cc1Cl (stereo not drawn) [Carfentrazone, carfentrazone-ethyl]
- Solo Carfentrazone % activity ([1]; 7 DAT): 30%
- Solo Carfentrazone % activity ([1]; 14 DAT): 18%
- Solo Carfentrazone % activity ([1]; 21 DAT): 25%
- Solo Carfentrazone % activity ([2]; 7 DAT, scale 0 (no damage) to 100 (complete destruction), AMS + NIS added): 30%
- Solo Carfentrazone % activity ([2]; 14 DAT, scale 0-100, AMS + NIS added): 30%
- Solo Carfentrazone % activity ([2]; 21 DAT, scale 0-100, AMS + NIS added): 35%

Reference: patent publication US12550898B2, “Herbicide combinations comprising glufosinate and carfentrazone-ethyl” (BASF SE, priority 2020, dated 2026)
